Data taken from US5922755A, “Immunomodulator, cell adhesion inhibtor, and agent for treating, and preventing autoimmune diseases” (Toyama Chemical Co., Ltd., priority 1993, dated 1999).

Experiments:
[1] = tested on: delayed-type hypersensitivity; test: Delayed-type hypersensitivity potentiated in mice by cyclophosphamide pretreatment (SRBC-induced paw edema); type: in vivo, BALB/c male mice; details: Mus musculus, po, 120 h, read-out: Delayed-type paw edema inhibitions; for inhibition in vivo at 100 mg/kg: 100 mg/kg p.o. once a day for 5 days; for inhibition in vivo at 10 mg/kg: 10 mg/kg p.o. once a day for 5 days; for inhibition in vivo at 30 mg/kg: 30 mg/kg p.o. once a day for 5 days
Procedure: The effect of the test compounds on the delayed-type hypersensitivity. Delayed-type hypersensitivity in potentiated in mice by pretreatment with cyclophosphamide was carried out in accordance with the method of P. H. Lagrange et al., Journal of Experimental Medicine, Vol.139, pp.1529-1539(1974). In brief, BALB/c male mice (8 weeks old, 6 to 8 mice per group) were pretreated with intraperitoneal injection of 75 mg/kg cyclophosphamide. Four days after the injection, 0.2 ml SRBC (sheep red blood cells) suspension (5×10^7 cells/ml) was intravenously sensitized. Three days after the sensitization; delayed-type hypersensitive responses were induced with intradermally injection of 0.05 ml SRBC suspension (8×10^9 cells/ml) to the left hind paw. After 24 hours, the mice were killed and both hind paws were cut off at the ankle to determine the weight of the paw. The SRBC-induced edema was measured as the difference between the left and right paw weights. The inhibitory percentage in paw edema produced by the compound treatment was expressed relative to the edema from the control mice. The test compounds were suspended in 0.5% carboxymethylcellulose (CMC) solution and were administered p.o. once a day for 5 days from 2 days prior to the sensitization. 0.5 % CMC solution instead of the test compounds was administered to the control mice.

[2] = tested on: experimental allergic encepharomyelitis (EAE); test: Experimental allergic encepharomyelitis (EAE); type: in vivo, Lewis female rats; details: Rattus norvegicus, po, 432 h, day 0 to 13, cumulative score for 18 days, rats, read-out: Inhibition of clinical score; for inhibition in vivo at 100 mg/kg: 100 mg/kg p.o. once a day; for inhibition in vivo at 30 mg/kg: 30 mg/kg p.o. once a day
Procedure: Effect of the test compounds on experimental allergic encep-haromyelitis. Experimental allergic encepharomyelitis (EAE) is a prototype for cell-mediated autoimmune diseases, and has been widely used as an animal model of multiple sclerosis. According to the method described by Deguchi et al., Brain and Nerve, Vol.42, pp.391-397(1990), EAE was induced by using Lewis female rats (5 rats per group). […] 0.5 % CMC solution instead of the test compound was administered to the control rats. The cumulative score of the symptoms for 18 days was obtained and the inhibitory percentage in the cumulative score produced by the test compound group was expressed relative to the cumulative score from the control group.

[3] = tested on: hemolytic plaque forming cell (PFC) response; test: Hemolytic plaque forming cell (PFC) response, SRBC sensitization; type: in vivo, BDF1 male mice; details: for PFC No./spleen: mean ± S.E.
[4] = tested on: very late antigen-4 (VLA-4); test: Expression of VLA-4 on lymphocytes from EAE rats (flow cytometry); type: in vivo, rat; details: 100 mg/kg, ten days after immunization, control 29.9
Procedure: Effect of the compounds on the expression of cell adhesion molecule (very late antigen-4:VLA-4) in EAE rats.
VLA-4 is one of the cell adhesion molecules which may be involved in the migration of lymphocytes. The effect of the compounds on the expression of VLA-4 on lymphocytes from EAE rats was examined. […] The leukocyte fraction was isolated from 5ml of the blood by density gradient centrifugation. 5×10^5of the leukocytes were suspended in 0.5 ml of phosphate buffered saline (PBS) containing 0.1 % bovine serum albumin and then reacted with 5 μl of mouse anti-rat VLA-4 antibo dy. After incubation at 4° C. for 1 hour, the cells were reacted with fluorescence isothiocyanate-conjugated sheep anti-mouse immunoglobulin for a further 30 min. The cells were washed with PBS and were analyzed on flow cytometry. The lymphocyte population was isolated to construct on based a forward and 90° light scatter. The results were expressed as a percentage of VLA-4 positive cell number to the lymphocyte number.

[5] = tested on: CD11b; test: Enhanced expression of CD11b in HL-60 cells stimulated by PMA (flow cytometry); type: cell-based, human; details: 10 μg/ml; HL-60, 24 hours; mean ± S.E., 6 measurements; control 82.2 ± 4.9
Procedure: Effect of the test compounds on the enhanced expression of cell adhesion molecule CD11b in HL-60 (human promyelocytic leukemia cell line)stimulatedby phorbol myristate acetate (PMA).
CD11b is the α-chain of cell adhesion molucule Mac-1, which is expressed in the activation of monocytes. The effect of the test compounds on the expression of CD11b on monocytes, HL-60 cells was analyzed. In brief, 5×10^6 HL-60 cells were suspended in 2 ml of RPMI-1640 containing 10% fetal calf serum (FCS) in each well of a 12-well multiplate, and then PMA ([…] final concentration) and the test compound were added to themedium. After incubation at 37° C. for 24 hours in an atmosphere containig 5% CO2, the cells were collected and was hed with PBS. 3×10^3 HL-60 cells were resuspended in 300 μl PBS(containing 1% FCS) and incubated with 5 μl of phycoerythrin-conjugated mouse anti-human CD11b antibody. After 1 hour incubation at 4° C., the cells were washed with PBS. The cells were analyzed on flow cytometry, and the results were expressed as the enhanced percentage of CD11b positive cells in the treated group relative to the PMA-untreated group.

[6] = 2 × 10^6 cells sensitization, 10 mg/kg p.o. for 3 days
[7] = 2 × 10^8 cells sensitization, 10 mg/kg p.o. for 3 days
[8] = 2 × 10^6 cells sensitization, 1 mg/kg p.o. for 3 days
[9] = 2 × 10^6 cells sensitization, 100 mg/kg p.o. for 3 days
[10] = 2 × 10^8 cells sensitization, 1 mg/kg p.o. for 3 days
[11] = 2 × 10^8 cells sensitization, 100 mg/kg p.o. for 3 days

CC(C)(S)[C@@H](N)C(=O)O [D-PENICILLAMINE, D-penicillamine, reference compound]
inhibition in vivo at 100 mg/kg [1]: -3% | inhibition in vivo at 100 mg/kg [2]: -10%

C[C@]12C=CC(=O)C=C1CC[C@@H]1[C@@H]2[C@@H](O)C[C@@]2(C)[C@H]1CC[C@]2(O)C(=O)CO [PREDNISOLONE, prednisolone, reference compound]
inhibition in vivo at 10 mg/kg [1]: 44% | PFC number, percentage of control group [3, 6]: 81 PERCENTAGE | PFC No./spleen [3, 6]: 3.97 ± 0.78 ×10^3 | PFC number, percentage of control group [3, 7]: 7 PERCENTAGE | PFC No./spleen [3, 7]: 17 ± 3 ×10^3

O=C(O)c1cc(/N=N/c2ccc(S(=O)(=O)Nc3ccccn3)cc2)ccc1O [SULFASALAZINE, Sulfasalazine, reference compound]
inhibition in vivo at 100 mg/kg [1]: 5% | inhibition in vivo at 300 mg/kg ([2]; 300 mg/kg p.o. once a day): 1%

CS(=O)(=O)Nc1cc2occ(NC=O)c(=O)c2cc1Oc1ccccc1 [compound No. 1, 3-formylamino-7-methylsulfonylamino-6-phenoxy-4H-1-benzopyran-4-one]
inhibition in vivo at 10 mg/kg [1]: 12% | inhibition in vivo at 30 mg/kg [1]: 27% | inhibition in vivo at 100 mg/kg [1]: 39% | PFC number, percentage of control group [3, 8]: 145 PERCENTAGE | PFC No./spleen [3, 8]: 7.06 ± 1.17 ×10^3 | PFC number, percentage of control group [3, 6]: 146 PERCENTAGE | PFC No./spleen [3, 6]: 7.13 ± 0.52 ×10^3 | PFC number, percentage of control group [3, 9]: 111 PERCENTAGE | PFC No./spleen [3, 9]: 5.40 ± 0.49 ×10^3 | PFC number, percentage of control group [3, 10]: 963 PERCENTAGE | PFC No./spleen [3, 10]: 231 ± 18 ×10^3 | PFC number, percentage of control group [3, 7]: 92 PERCENTAGE | PFC No./spleen [3, 7]: 221 ± 17 ×10^3 | PFC number, percentage of control group [3, 11]: 54 PERCENTAGE | PFC No./spleen [3, 11]: 129 ± 20 ×10^3 | inhibition in vivo at 1 mg/kg ([2]; 1 mg/kg p.o. once a day): 21% | inhibition in vivo at 100 mg/kg [2]: 67% | Percentage of VLA-4 positive cell (mean) [4]: 12.0 PERCENTAGE | CD11b increased rate of expression [5]: 49.9 ± 1.8%

CS(=O)(=O)Nc1cc2occc(=O)c2cc1Oc1ccccc1 [compound No. 2, 7-methylsulfonylamino-6-phenoxy-4H-1-benzopyran-4-one]
inhibition in vivo at 100 mg/kg [1]: 17%

CS(=O)(=O)Nc1cc2occc(=O)c2cc1Oc1ccc(F)cc1F [compound No. 3, 6-(2,4-difluorophenoxy)-7-methylsulfonylamino-4H-1-benzopyran-4-one]
inhibition in vivo at 30 mg/kg [1]: 48% | inhibition in vivo at 30 mg/kg [2]: 86%

CS(=O)(=O)Nc1cc2occ(C(N)=O)c(=O)c2cc1Oc1ccccc1 [compound No. 4, 3-carbamoyl-7-methylsulfonylamino-6-phenoxy-4H-1-benzopyran-4-one]
inhibition in vivo at 100 mg/kg [1]: 41% | inhibition in vivo at 30 mg/kg [2]: 50%

Cc1oc2cc(NS(C)(=O)=O)c(Oc3ccccc3)cc2c(=O)c1C(N)=O [compound No. 5, 3-carbamoyl-2-methyl-7-methylsulfonylamino-6-phenoxy-4H-1-benzopyran-4-one]
inhibition in vivo at 100 mg/kg [1]: 16%

CN(C=O)c1coc2cc(NS(C)(=O)=O)c(Oc3ccccc3)cc2c1=O [compound No. 6, 3-(N-formyl-N-methyl)amino-7-methylsulfonylamino-6-phenoxy-4H-1-benzopyran-4-one]
inhibition in vivo at 100 mg/kg [1]: 17% | inhibition in vivo at 30 mg/kg [2]: 66%

CS(=O)(=O)Nc1cc2occ(C(=O)O)c(=O)c2cc1Oc1ccccc1 [compound No. 7, 3-carboxy-7-methylsulfonylamino-6-phenoxy-4H-1-benzopyran-4-one]
inhibition in vivo at 100 mg/kg [1]: 16% | inhibition in vivo at 30 mg/kg [2]: 50%

CSc1coc2cc(NS(C)(=O)=O)c(Oc3ccccc3)cc2c1=O [compound No. 8, 3-methylthio-7-methylsulfonyl amino-6-phenoxy-4H-1-benzopyran-4-one]
inhibition in vivo at 100 mg/kg [1]: 21% | inhibition in vivo at 30 mg/kg [2]: 17%

CS(=O)(=O)Nc1cc2occ(NC=O)c(=O)c2cc1Nc1ccc(F)cc1F [compound No. 9, 6-(2,4-difluorophenylamino)-3-formylamino-7-methylsulfonylamino-4H-1-benzopyran-4-one]
inhibition in vivo at 100 mg/kg [1]: 28% | inhibition in vivo at 30 mg/kg [2]: 50%

CS(=O)(=O)Nc1cc2occ(C(N)=O)c(=O)c2cc1Nc1ccc(F)cc1F [compound No. 10, 3-carbamoyl-6-(2,4-difluorophenylamino)-7-methylsulfonylamino-4H-1-benzopyran-4-one]
inhibition in vivo at 100 mg/kg [1]: 20% | inhibition in vivo at 30 mg/kg [2]: 42%

Cc1cc(=O)c2cc(Oc3ccccc3)c(NS(C)(=O)=O)cc2o1 [compound No. 11, 2-methyl-7-methyl sulfonylamino-6-phenoxy-4H-1-benzopyran-4-one]
inhibition in vivo at 30 mg/kg [2]: 52%

CS(=O)(=O)Nc1cc2occ(NC=O)c(=O)c2cc1Nc1ccccc1F [compound No. 12, 6-(2-fluorophenylamino)-3-formylamino-7-methylsulfonylamino-4H-1-benzopyran-4-one]
inhibition in vivo at 30 mg/kg [2]: 67%
